Experimental data reported in ChEMBL document CHEMBL1201862, “PubChem BioAssay data set” (2004).
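Assay format: 96-well plates, 48-hour exposure. Abbreviation: GI50, concentration required for 50% inhibition of growth.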 The source made the active and inactive calls. Cut-off read from the data, not from the text of the source: active = GI50 up to about 1.1 µM and inactive = higher.

Columns and labels:
Test in all cases: growth of human tumour cells (NCI), 48 h
MCF7 = system: MCF7
MOLT-4 = system: MOLT-4
DU-145 = system: DU-145
LOX IMVI = system: LOX IMVI
HL-60 = system: HL-60
SF-268 = system: SF-268
OVCAR-8 = system: OVCAR-8
SK-MEL-28 = system: SK-MEL-28
BT-549 = system: BT-549
COLO 205 = system: COLO 205
SW-620 = system: SW-620
SNB-19 = system: SNB-19
Malme-3M = system: Malme-3M
OVCAR-4 = system: OVCAR-4
UACC-257 = system: UACC-257
HT-29 = system: HT-29
HCT-15 = system: HCT-15
U-251 = system: U-251
A498 = system: A498

SMILES | GI50 (MCF7) | GI50 (MOLT-4) | GI50 (DU-145) | GI50 (LOX IMVI) | GI50 (HL-60) | GI50 (SF-268) | GI50 (OVCAR-8) | GI50 (SK-MEL-28) | GI50 (BT-549) | GI50 (COLO 205) | GI50 (SW-620) | GI50 (SNB-19) | GI50 (Malme-3M) | GI50 (OVCAR-4) | GI50 (UACC-257) | GI50 (HT-29) | GI50 (HCT-15) | GI50 (U-251) | GI50 (A498)
CC1C(=NO)C(C)C(c2ccccc2)N(N=O)C1c1ccccc1 (stereo unspecified) | 37.9 µM (inactive) | 12.2 µM (inactive) | 30.8 µM (inactive) | 15.9 µM (inactive) | 25 µM (inactive) | 15 µM (inactive) | 18 µM (inactive) | 16.7 µM (inactive) | 22.9 µM (inactive) | 17.3 µM (inactive) | 21.8 µM (inactive) | 18.3 µM (inactive) | 17.4 µM (inactive) | 19.6 µM (inactive) | 23.4 µM (inactive) | 17.4 µM (inactive) | 16.6 µM | 17.7 µM (inactive) | 
COc1cc2c(cc1O)C(c1cc(O)c(O)c(OC)c1)C(O)(C(=O)O)C(CO)C2O (stereo unspecified) | 20.9 µM (inactive) | 20.3 µM (inactive) | > 100 µM (inactive) | 17.9 µM (inactive) |  | > 100 µM (inactive) | > 100 µM (inactive) | > 100 µM (inactive) | > 100 µM (inactive) | > 100 µM (inactive) | 26 µM (inactive) | > 100 µM (inactive) | > 100 µM (inactive) | > 100 µM (inactive) | > 100 µM (inactive) | > 100 µM (inactive) | > 100 µM | > 100 µM (inactive) | > 100 µM (inactive)
COc1ccc(C2=C(Cl)C(=O)N(c3ccc(OC)cc3OC)C(=O)C2(Cl)Cl)cc1 | 21 µM (inactive) | 5.07 µM (inactive) | 17.3 µM (inactive) | 14.7 µM (inactive) | 25.2 µM (inactive) | 18.1 µM (inactive) | 19.5 µM (inactive) | 17 µM (inactive) | 18.8 µM (inactive) | 17.9 µM (inactive) | 14.8 µM (inactive) | 56.6 µM (inactive) | 14.6 µM (inactive) | 14.5 µM (inactive) | 17.8 µM (inactive) | 18.1 µM (inactive) | 14.2 µM | 16.6 µM (inactive) | 
O=C([C@H](O)[C@@H](O)c1ccc(Br)cc1)C12CC3CC(CC(C3)C1)C2 | 7.31 µM (inactive) | 14.4 µM (inactive) | 9.68 µM (inactive) | 31.1 µM (inactive) |  | 11.6 µM (inactive) | 42.8 µM (inactive) | 24.7 µM (inactive) | 8.73 µM (inactive) | > 20.2 µM (inactive) |  | 19.2 µM (inactive) | 13.9 µM (inactive) | 19.3 µM (inactive) | 9.59 µM (inactive) | 12.7 µM (inactive) | 13.6 µM | 7.18 µM (inactive) | 11.6 µM (inactive)
COc1ccc(N[C@H](C[S+]([O-])c2ccc(C)cc2)C(F)(F)F)cc1 (stereo partly specified) | > 100 µM (inactive) | > 100 µM (inactive) | > 100 µM (inactive) | > 100 µM (inactive) | > 100 µM (inactive) |  | > 100 µM (inactive) | > 100 µM (inactive) | > 100 µM (inactive) | > 100 µM (inactive) | > 100 µM (inactive) | > 100 µM (inactive) | > 100 µM (inactive) | > 100 µM (inactive) | > 100 µM (inactive) | > 100 µM (inactive) | > 100 µM | > 100 µM (inactive) | 
COC(=O)C(C)(NC(=O)C(CC(=O)OC(C)(C)C)NC(=O)OC(C)(C)C)c1ccccc1 (stereo unspecified) | 62.1 µM (inactive) | > 100 µM (inactive) | > 100 µM (inactive) | > 100 µM (inactive) | 81.7 µM (inactive) | 7.19 µM (inactive) | > 100 µM (inactive) | > 100 µM (inactive) | > 100 µM (inactive) | > 100 µM (inactive) | > 100 µM (inactive) | > 100 µM (inactive) | 40 µM (inactive) |  | > 100 µM (inactive) | > 100 µM (inactive) | > 100 µM | > 100 µM (inactive) | 54.3 µM (inactive)
O=c1oc2ccccc2n1CCN1CCCCC1 | > 100 µM (inactive) | > 100 µM (inactive) | > 100 µM (inactive) | > 100 µM (inactive) | > 100 µM (inactive) | > 100 µM (inactive) | > 100 µM (inactive) | > 100 µM (inactive) | > 100 µM (inactive) | > 100 µM (inactive) | > 100 µM (inactive) | > 100 µM (inactive) | > 100 µM (inactive) |  | > 100 µM (inactive) | > 100 µM (inactive) | > 100 µM | > 100 µM (inactive) | > 100 µM (inactive)
COc1cccc(N2C(=O)/C(=C\c3ccccc3)SC2c2cc(OC)c(OC)c(OC)c2)c1 (stereo unspecified) | 42.4 µM (inactive) | 27.5 µM (inactive) | 41.2 µM (inactive) | 37.8 µM (inactive) | 36 µM (inactive) | 41.4 µM (inactive) | 44.1 µM (inactive) | 96.2 µM (inactive) | 47.9 µM (inactive) | 39.7 µM (inactive) |  | 77.6 µM (inactive) |  | 46.5 µM (inactive) | > 100 µM (inactive) | 45.2 µM (inactive) | 44.3 µM | 33.3 µM (inactive) | 28.8 µM (inactive)
